In one series the test system is rat microglia. The series is described as follows: α-syn propagation, two-chamber co-culture with α-syn-overexpressed SH-SY5Y cells, immunostaining (primary microglia). Format: cell-based. Particulars: vs PBS-treated group, FIGS. 10C, 10F. As for the experimental part:
FIGS. 10C and 10F are images and graphs showing that α-syn propagation was reduced in rat microglia by treatment of the SHP-1/2 inhibitor, NSC87877. Scale bar indicates 20 μm, and *** P<0.001 represents a comparison with the PBS-treated group.
(§1) The prepared SHP-1 knockdown SH-SY5Y dopaminergic neuronal cell lines (SHP-1 KD1 and SHP-1 KD2) were co-cultured with α-syn-overexpressed SH-SY5Y dopaminergic neuronal cell line using the two-chamber system for 12 hours. The co-culture is briefly summarized as follows. SH-SY5Y or BV2 or OLN93 cell was seeded at a density of 4×10^4 cell per well on a 12-well cover glass, and α-syn-overexpressed SH-SY5Y cell was seeded at a density of 4×10^4 cell per well on a 12-well transwell. Each of the cells was incubated for one day, and then the transwell (α-syn-overexpressed SH-SY5Y cell) was transferred to the 12-well cover glass (SH-SY5Y cell), followed by co-culture for 12 hours, and then immunostaining.

Series [1] deals with BV-2 cells. Kind of series: α-syn propagation, two-chamber co-culture with α-syn-overexpressed SH-SY5Y cells, immunostaining (BV-2). Particulars: co-culture 12 hours, vs PBS-treated group, FIGS. 10B, 10E. Format: cell-based, murine. As for the experimental part: FIGS. 10B and 10E are images and graphs showing that α-syn propagation was reduced by treatment of SHP-1/2 inhibitor, NSC87877. *** P<0.001 represents a comparison with the PBS-treated group.
as §1

The subject of the next series is OLN 93 cell line. Kind of series: α-syn propagation, two-chamber co-culture with α-syn-overexpressed SH-SY5Y cells, immunostaining (OLN 93). Particulars: OLN 93 cells; co-culture 12 hours; vs PBS-treated group; FIGS. 10N, 10P. The series is classed as cell-based. As for the experimental part:
FIGS. 10N and 10P are images and graphs showing that propagation of α-syn is reduced in OLN 93 cell line treated with the SHP-1,2 inhibitor NSC87877. *** P<0.001 represents a comparison with the PBS-treated group.
as §1

In another series the test system is SH-SY5Y cells. Kind of series: α-syn propagation, two-chamber co-culture with α-syn-overexpressed SH-SY5Y cells, immunostaining (SH-SY5Y). Particulars: co-culture 12 hours, vs PBS-treated group, FIGS. 10I, 10K. Format: cell-based, human. As to the method: FIGS. 10I and 10K are images and graphs showing that propagation of aggregated α-syn is reduced in SH-SY5Y cell line treated with the SHP-1,2 inhibitor NSC87877, similar to the SHP-1 knockdown cells. *** P<0.001 represents a comparison with the PBS-treated group.
as §1

A further series concerns rat primary microglia. The series is described as follows: Phagocytosis assay with fluorescent microspheres, aggregated α-syn-treated rat primary microglia. The series is classed as cell-based. Particulars: 20 μM pre-incubation 30 minutes, then 1 NM of aggregated α-syn and fluorescent microspheres for 12 hours, FIG. 4E. As for the experimental part: (§2) FIGS. 4D and 4E are graphs showing phagocytic activity after pre-incubating BV-2 cell and rat primary microglia with 20 μM of NSC87877 as an SHP-1 inhibitor for 30 minutes, and then incubating them with 1 NM of aggregated α-syn and fluorescent microspheres for 12 hours. ** P<0.01 represents a comparison with the control group.
(§3) Further, BV-2 cells, a murine microglial cell line, were grown in Dulbecco's modified Eagle's Medium (DMEM) supplemented with 5% fetal bovine serum (FBS) and maintained at 37° C. in a humidified atmosphere of 5% CO2. Rat primary microglia from the cerebral cortices of 1-day-old Sprague-Dawley rats were cultured as described in the known literature (Kim, K. S., et al., 2012. J Biol Chem. 287, 24862-72.).
(§4) Briefly, BV-2 cells (5×10^4 cells per well) were cultured in a 12 well plate overnight. The medium was then removed and replaced with fresh DMEM containing 5% FBS. […] The five random fields of cells (>100 cells) were counted under a confocal microscope (Zeiss, Germany). Percentage of phagocytic cells was analyzed by a known method (Park, J. Y., et al., 2008. Glia. 56, 1215-23.). For cell viability assay, BV-2 cells were treated with 1 μM of aggregated α-syn for 12 hours, and then LDH release was measured using an LDH-cytotoxicity assay kit (Biovision, CA) according to the manufacturer's instructions. […]

Series [2] deals with BV-2 cells. The series is described as follows: Phagocytosis assay with fluorescent microspheres, aggregated α-syn-treated BV-2 cells. Format: cell-based, murine. Particulars: 20 μM pre-incubation 30 minutes, then 1 NM of aggregated α-syn and fluorescent microspheres for 12 hours, FIG. 4D. As to the method: as §2, §3, §4
Series [3] has as its system differentiated SH-SY5Y cells. The series is described as follows: LDH release cytotoxicity assay, aggregated α-syn on differentiated SH-SY5Y dopaminergic neurons. Particulars: 1 μM aggregated α-syn and 50 μM inhibitor for 2 days, FIG. 12B. The series is classed as cell-based, human. The text has this:
FIG. 12B is a graph showing the effect of the SHP-1/2 inhibitor, NSC87877 on cytotoxicity of aggregated α-syn in undifferentiated SH-SY5Y cells and differentiated SH-SY5Y cells.
FIGS. 12C and 12D are images and graphs showing the effect of the SHP-1/2 inhibitor, NSC87877 on cytotoxicity of aggregated α-syn in differentiated SH-SY5Y cells. ** P<0.01 represents a comparison with the PBS-treated SHSY5Y.
To differentiate SH-SY5Y cells to dopaminergic neurons, SH-SY5Y cells seeded in a culture plate were cultured in a medium containing 50 μM of retinoic acid for 5 days. In this regard, the medium was replaced by a fresh medium containing 50 μM of retinoic acid at 3 days, 4 days, and 5 days after initiation of the culture. Further, in order to assess cytotoxicity, the differentiated SH-SY5Y dopaminergic neurons and undifferentiated SH-SY5Y dopaminergic neurons were seeded in 12-well, respectively, followed by incubation for one day. Thereafter, they were cultured in a medium containing 1 μM of aggregated α-syn and 50 μM of the SHP-1/-2 inhibitor NSC87877 for 2 days, and LDH (lactate dehydrogenase) release assay was performed according to the manufacturer's instructions.
Background: LDH leaks from cells whose membrane has failed.

Series [4] relates to A53Tα-syn-overexpressed SHSY5Y cells. Kind of series: Intracellular aggregation of eGFP-tagged A53T α-syn in co-culture, confocal microscopy. The series is classed as cell-based, human. Particulars: co-culture with α-syn-overexpressed SHSY5Y, 5 days after treatment; FIG. 14C. As to the method:
FIG. 14C is an image of confocal microscopy after differentiation with retinoic acid for 5 days in the co-culture of A53Tα-syn-overexpressed SHSY5Y and α-syn-overexpressed SHSY5Y under treatment of the SHP-1/2 inhibitor, NSC87877. Scale bar indicates 20 μm.
First, eGPF-tagged A53Tα-syn-overexpressed SHSY5Y cell line was prepared using lentivirus, and the prepared eGPP-tagged A53Tα-syn-overexpressed SHSY5Y cell line and α-syn-overexpressed SHSY5Y cell line were mixed, followed by co-culture. […] At 5 days after the co-culture, intracellular distribution of eGFP-tagged A53Tα-syn was observed under confocal microscopy.
In this regard, the SHP-1/2 inhibitor, NSC87877 was treated and A53Tα-syn-overexpressed SHSY5Y cell line and α-syn-overexpressed SHSY5Y cell line were mixed, followed by co-culture. At 5 days after NSC 87877 treatment and co-culture, intracellular distribution of eGFP-tagged A53Tα-syn was observed under confocal microscopy.

The structures appear in SMILES notation.

Turning to `O=S(=O)(O)c1ccc2cc(N=Nc3cc(S(=O)(=O)O)c4cccnc4c3O)ccc2c1` [NSC87877], the α-syn propagation entry in the series on rat microglia is “reduced α-syn propagation was observed”; in the series on BV-2 cells [1] it was “α-syn propagation was also reduced”; in the series on OLN 93 cell line it was “α-syn propagation was also reduced”; with SH-SY5Y cells, “α-syn propagation was also reduced”. In addition, the “Effect on inhibition of microglial phagocytosis by aggregated α-syn” value in the series with rat primary microglia and in the series on BV-2 cells [2] was “efficiently rescued the inhibitory effect of aggregated α-syn on microglial phagocytosis” each time. Also, in series [3], the “Neurotoxicity (cytotoxicity, LDH release) by aggregated α-syn” value is reported as “neurotoxicity by aggregated α-syn was reduced”. Further, the “Intracellular aggregation of eGFP-tagged A53Tα-syn (eGFP distribution)” value in series [4] is “no aggregation in the cells”.

(Values after patent US10085976B2, “Pharmaceutical composition for preventing or treating neurodegenerative diseases” (AJOU UNIVERSITY INDUSTRY-ACADEMIC COOPERATION FOUNDATION, priority 2015, dated 2018).)
